Data: patent US9580409B2, “Modulators of opioid receptors and methods of use thereof” (priority 2011, dated 2017)

Assays:
mu-opioid receptor [1] = target: T1, mu-opioid receptor (Homo sapiens, UniProt P35372); test: cell-based; details: read-out: BArr Activity
Target sequence in this assay (P35372 whole entry, species assumed): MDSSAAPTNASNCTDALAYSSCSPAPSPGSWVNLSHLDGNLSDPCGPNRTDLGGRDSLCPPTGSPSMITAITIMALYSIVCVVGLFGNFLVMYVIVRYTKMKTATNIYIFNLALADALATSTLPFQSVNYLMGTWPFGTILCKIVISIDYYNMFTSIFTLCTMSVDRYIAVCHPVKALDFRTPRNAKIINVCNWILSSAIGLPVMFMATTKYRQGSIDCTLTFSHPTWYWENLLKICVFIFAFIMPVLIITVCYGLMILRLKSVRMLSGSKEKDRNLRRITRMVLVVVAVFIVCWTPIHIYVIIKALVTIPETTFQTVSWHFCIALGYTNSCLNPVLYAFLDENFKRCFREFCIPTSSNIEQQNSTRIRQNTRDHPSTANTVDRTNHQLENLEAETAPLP
Target sequence in this assay (P32121 whole entry partner, species assumed): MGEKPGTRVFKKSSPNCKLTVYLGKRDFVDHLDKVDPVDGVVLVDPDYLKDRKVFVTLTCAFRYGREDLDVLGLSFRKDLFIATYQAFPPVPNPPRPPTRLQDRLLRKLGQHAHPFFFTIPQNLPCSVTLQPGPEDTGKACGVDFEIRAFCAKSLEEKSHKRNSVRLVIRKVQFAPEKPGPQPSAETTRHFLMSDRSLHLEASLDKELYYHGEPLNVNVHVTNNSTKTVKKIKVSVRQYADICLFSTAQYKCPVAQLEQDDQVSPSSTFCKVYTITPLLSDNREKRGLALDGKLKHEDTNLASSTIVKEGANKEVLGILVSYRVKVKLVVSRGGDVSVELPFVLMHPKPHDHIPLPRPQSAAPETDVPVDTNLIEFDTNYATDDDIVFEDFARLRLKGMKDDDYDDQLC

mu-opioid receptor [2] = target: T1, mu-opioid receptor; test: biochemical; details: read-out: GTP Activity
Target sequence in this assay (P35372 whole entry, species assumed): as the sequence (P35372 whole entry, species assumed) above

[3] = […], class symbol combines EC50 and efficacy

Structure (SMILES): CCNC1=C(c2nc3ccccc3[nH]2)C(=O)[C@H](CC)N1c1cc(OC)cc(OC)c1 [compound 187]
- EC50 (mu-opioid receptor [1]; class symbols): < 10 µM
- EC50 (mu-opioid receptor [2]; class symbols): < 0.1 µM

Structure (SMILES): CNC1=C(c2nc3ccccc3[nH]2)C(=O)[C@]2(CCOC2)N1c1cc(OC)cc(OC)c1 [compound 213]
- EC50 (mu-opioid receptor [1]; [3]): < 10 µM
- EC50 (mu-opioid receptor [2]; [3]): < 0.1 µM

Structure (SMILES): COc1cc(OC)cc(N2C(N)=C(c3nc4ccccc4[nH]3)C(=O)C2CCNC(C)=O)c1 (stereo not drawn) [compound 233]
- EC50 (mu-opioid receptor [1]; [3]): < 10 µM
- EC50 (mu-opioid receptor [2]; [3]): < 0.1 µM

Structure (SMILES): COc1cc(OC)cc(N2C(N)=C(c3nc4ccccc4[nH]3)C(=O)C23CCOC3)c1 (stereo not drawn) [compound 181]
- EC50 (mu-opioid receptor [1]; class symbols): < 10 µM
- EC50 (mu-opioid receptor [2]; class symbols): 0.1 to 1 µM

Structure (SMILES): COc1cc(OC)cc(N2C(N)=C(c3nc4ccccc4[nH]3)C(=O)[C@@H]2CCO)c1 [compound 242]
- EC50 (mu-opioid receptor [1]; [3]): < 10 µM
- EC50 (mu-opioid receptor [2]; [3]): < 0.1 µM

Structure (SMILES): CNC1=C(c2nc3ccccc3[nH]2)C(=O)C(CCO)N1c1cc(OC)cc(OC)c1 (stereo not drawn) [compound 215]
- EC50 (mu-opioid receptor [1]; [3]): < 10 µM
- EC50 (mu-opioid receptor [2]; [3]): < 0.1 µM

Structure (SMILES): COc1cc(OC)cc(N2C(N)=C(c3nc4ccccc4[nH]3)C(=O)C2CCNC(=O)c2ccccc2)c1 (stereo not drawn) [compound 236]
- EC50 (mu-opioid receptor [1]; [3]): < 10 µM
- EC50 (mu-opioid receptor [2]; [3]): < 0.1 µM

Structure (SMILES): CNC1=C(c2nc3ccccc3[nH]2)C(=O)C(C)(CNC(C)=O)N1c1cc(OC)cc(OC)c1 (stereo not drawn) [compound 281]
- EC50 (mu-opioid receptor [1]; [3]): < 10 µM
- EC50 (mu-opioid receptor [2]; [3]): < 0.1 µM

Structure (SMILES): COc1cc(OC)cc(N2C(N)=C(c3nc4ccccc4[nH]3)C(=O)[C@@H]2C(C)C)c1 [compound 98]
- EC50 (mu-opioid receptor [1]; class symbols): < 10 µM
- EC50 (mu-opioid receptor [2]; class symbols): < 0.1 µM

Structure (SMILES): CNC1=C(c2nc3ccccc3[nH]2)C(=O)[C@@H](C)N1c1cc(OC)cc(OC)c1 [compound 136]
- EC50 (mu-opioid receptor [1]; class symbols): < 10 µM
- EC50 (mu-opioid receptor [2]; class symbols): < 0.1 µM

Structure (SMILES): CNC1=C(c2nc3ccccc3[nH]2)C(=O)C(CC(C)O)N1c1cc(OC)cc(OC)c1 (stereo not drawn) [compound 310]
- EC50 (mu-opioid receptor [1]; [3]): < 10 µM
- EC50 (mu-opioid receptor [2]; [3]): < 0.1 µM

Structure (SMILES): CNC1=C(c2nc3ccccc3[nH]2)C(=O)[C@](C)(CCNC(C)=O)N1c1cc(OC)cc(OC)c1 [compound 303]
- EC50 (mu-opioid receptor [1]; [3]): < 10 µM
- EC50 (mu-opioid receptor [2]; [3]): < 0.1 µM

Structure (SMILES): CNC1=C(c2nc3ccccc3[nH]2)C(=O)C(CNC(C)=O)N1c1cc(OC)cc(OC)c1 (stereo not drawn) [compound 287]
- EC50 (mu-opioid receptor [1]; [3]): < 10 µM
- EC50 (mu-opioid receptor [2]; [3]): < 0.1 µM

Structure (SMILES): COc1cc(OC)cc(N2C(N)=C(c3nc4ccccc4[nH]3)C(=O)C2CCO)c1 (stereo not drawn) [compound 203]
- EC50 (mu-opioid receptor [1]; [3]): < 10 µM
- EC50 (mu-opioid receptor [2]; [3]): < 0.1 µM

Structure (SMILES): CNC1=C(c2nc3ccccc3[nH]2)C(=O)[C@@](C)(CNC(C)=O)N1c1cc(OC)cc(OC)c1 [compound 308]
- EC50 (mu-opioid receptor [1]; [3]): < 10 µM
- EC50 (mu-opioid receptor [2]; [3]): < 0.1 µM

Structure (SMILES): CNC1=C(c2nc3ccccc3[nH]2)C(=O)C(CCOC)N1c1cc(OC)cc(OC)c1 (stereo not drawn) [compound 218]
- EC50 (mu-opioid receptor [1]; [3]): < 10 µM
- EC50 (mu-opioid receptor [2]; [3]): < 0.1 µM

Structure (SMILES): COc1cc(OC)cc(N2C(N)=C(c3nc4ccccc4[nH]3)C(=O)C2(C)C)c1 [compound 2]
- EC50 (mu-opioid receptor [1]; class symbols): < 10 µM
- EC50 (mu-opioid receptor [2]; class symbols): 0.1 to 1 µM

Structure (SMILES): CC[C@H]1C(=O)C(c2nc3ccccc3[nH]2)=C(NC)N1c1cc(OC)cc(OC)c1 [compound 185]
- EC50 (mu-opioid receptor [1]; class symbols): < 10 µM
- EC50 (mu-opioid receptor [2]; class symbols): < 0.1 µM

Structure (SMILES): CNC1=C(c2nc3ccccc3[nH]2)C(=O)C(CCNC(=O)c2ccccc2)N1c1cc(OC)cc(OC)c1 (stereo not drawn) [compound 255]
- EC50 (mu-opioid receptor [1]; [3]): < 10 µM
- EC50 (mu-opioid receptor [2]; [3]): < 0.1 µM

Structure (SMILES): CCC(=O)NCC1C(=O)C(c2nc3ccccc3[nH]2)=C(NC)N1c1cc(OC)cc(OC)c1 (stereo not drawn) [compound 288]
- EC50 (mu-opioid receptor [1]; [3]): < 10 µM
- EC50 (mu-opioid receptor [2]; [3]): < 0.1 µM

Structure (SMILES): COc1cc(OC)cc(N2C(N)=C(c3nc4ccccc4[nH]3)C(=O)C2C)c1 (stereo not drawn) [compound 1]
- EC50 (mu-opioid receptor [1]; class symbols): < 10 µM
- EC50 (mu-opioid receptor [2]; class symbols): 0.1 to 1 µM
